# Data as given in patent publication US20150079071A1, “NON-CATALYTIC DOMAIN TARGETS IN MATRIX METALLOPROTEASE PROTEINS FOR CANCER THERAPIES” (THE REGENTS OF THE UNIVERSITY OF CALIFORNIA, priority 2012, published 2015).
# Where two headings read alike, the source gives them in different places.
# Key:
# Assay type in all cases: cell-based, mouse
# [1] = test system: primary mammary organoids and EpH4 cells; assay: Branching morphogenesis (invasion/branching) assay in collagen-1 gels; details: 9 nM FGF2, inhibitors 40 μM; for invasion/branching in sparse CL-1 gels: sparse CL-1 1 mg/ml
# Method: Single cells were removed by centrifugation and the clusters were then washed three times with DMEM/F12. Cell clusters and primary organoids were embedded in collagen-1 gels. Briefly, acid-extracted type I collagen (Koken, Tokyo, Japan) was mixed gently on ice (8 vol) with 1 vol of 10×DMEM/F12, then pH is adjusted to 7.4 with 0.1N NaOH. Collagen solution was added into each well of a 48-well plate, which was then incubated at 37° C. to allow gelation. EpH4 cell clusters or primary organoids were suspended in collagen at 3 mg/ml or 1 mg/ml, poured onto the basal collagen layer and placed at 37° C. for gelation. After gelation of the collagen, growth medium containing 9 nM FGF2 was added to the wells. Branching morphogenesis was assessed using a Nikon Diaphot 300 microscope and clusters were scored as positive when displaying three or more branches of length at least half the diameter of the central cell cluster.
# [2] = test system: Erk; assay: Immunoblot of phospho-Erk / total Erk (MAPK activity); details: EpH4 cells in CL-1 gels
# Method: Samples were lysed using modified RIPA buffer (50 mM HEPES pH 7.4, 150 mM NaCl, 10% glycerol, 1% Triton X-100, 10 mM sodium pyrophosphate containing 1.5 mM MgCl2, 1 mM EGTA, 1% sodium deoxycholate, 0.25 mM Na3VO4, 100 mM NaF and proteinase inhibitor cocktail (EMD Millipore, Billerica, USA)). Protein concentration was determined using the BCA Protein Assay kit (Thermo Scientific, Waltham, USA), following the manufacturer's instructions. Protein samples (10 μg) were mixed with Laemmeli sample buffer and heated at 95° C. for 5 minutes. Samples were loaded into a pre-cast 4-20% tris-glycine polyacrylamide gel (Invitrogen) using the NOVEX system (Invitrogen). Resolved proteins were transferred to nitrocellulose membrane (Whatman, Maidstone, UK) followed by blocking in PBS, 0.05% Tween-20 with 5% w/v non-fat dry milk for 1 hour at room temperature (RT). Membranes were incubated overnight at 4° C. in 5% BSA, 0.1% Tween-20 in PBS containing antibodies that recognize either phosphorylated Erk1/2, total Erk1/2 (Cell Signaling). […] Primary antibodies were detected with HRP conjugated anti-IgG (Thermo) and the Pierce SuperSignal detection kit. Chemiluminescence ignal was captured with a FluorChem 8900 analysis system (Alpha Innotech, San Leandro, USA).
# [3] = test system: Mmp14 and Itgb1; assay: Immunoblot of Mmp14 and Itgb1 levels in EpH4 cells
# Method: Samples were lysed using modified RIPA buffer (50 mM HEPES pH 7.4, 150 mM NaCl, 10% glycerol, 1% Triton X-100, 10 mM sodium pyrophosphate containing 1.5 mM MgCl2, 1 mM EGTA, 1% sodium deoxycholate, 0.25 mM Na3VO4, 100 mM NaF and proteinase inhibitor cocktail (EMD Millipore, Billerica, USA)). Protein concentration was determined using the BCA Protein Assay kit (Thermo Scientific, Waltham, USA), following the manufacturer's instructions. Protein samples (10 μg) were mixed with Laemmeli sample buffer and heated at 95° C. for 5 minutes. Samples were loaded into a pre-cast 4-20% tris-glycine polyacrylamide gel (Invitrogen) using the NOVEX system (Invitrogen). Resolved proteins were transferred to nitrocellulose membrane (Whatman, Maidstone, UK) followed by blocking in PBS, 0.05% Tween-20 with 5% w/v non-fat dry milk for 1 hour at room temperature (RT). Membranes were incubated overnight at 4° C. in 5% BSA, 0.1% Tween-20 in PBS containing antibodies that recognize either phosphorylated Erk1/2, total Erk1/2 (Cell Signaling). Anti-Mmp14 (Abcam, Cambridge, USA), anti-Itgb1 (Santa Cruz Biotechnology, Santa Cruz, USA), anti-Itgb1 p788/789 (Abcam), anti-LAM A/C (Santa Cruz Biotechnology), anti-Actin (Abcam), anti-FLAG (Sigma) and rabbit IgG (Sigma) antibodies were used for immunoblotting. Primary antibodies were detected with HRP conjugated anti-IgG (Thermo) and the Pierce SuperSignal detection kit. Chemiluminescence ignal was captured with a FluorChem 8900 analysis system (Alpha Innotech, San Leandro, USA).
# [4] = test system: SCp2 cells; assay: Invasion assay in Boyden chambers; details: for invasion of FL and EA-SCp2 cells: SCp2 overexpressing MMP3 constructs containing the hemopexin domain; for invasion of dPEX-SCp2 or control cells: SCp2 with hemopexin-deleted MMP3 or control vector
# Method: Cell culture inserts (8 μm, 24-well format; BD Biosciences) were evenly coated with 20 μL of diluted (1:5 in DMEM/F-12 medium) Matrigel (BD Biosciences). Cells (1×10^5) in 200 μL of DMEM/F-12 medium or different CM (as indicated in each experiment) were added to the upper compartment of the chamber. The lower compartment of the chamber was filled with 300 μL of medium containing 10% FBS as a chemoattractant. After 48 h of incubation at 37° C., the top side of the insert was cleared from noninvasive cells with a cotton swab and washed with serum-free DMEM/F-12. The remaining (invasive) cells at the lower surface of the filter were fixed and stained with a solution of Coomassie Blue 0.125% in methanol:acetic acid:H2O (45%:10%:45% [v/v/v]) for 15 min. Invasive cells were scored by counting 10×20 magnification fields per filter with a Zeiss Imager Z1 microscope using a 20× objective. Mouse embryonic fibroblast NIH/3T3 cells were routinely included as a positive control. Results are expressed as mean±SD from three independent experiments.
# [5] = test system: primary mammary organoids; assay: Branching morphogenesis assay of primary mammary organoids in 3D Col-1 gels
# Method: Primary organoids or clustered EpH4 cells were embedded in 3D Col-1 gels as previously published (Simian et al. 2001; Mori et al. 2013). In brief, acid-solubilized Col-1 solution was mixed gently on ice with 1 vol of 10×DMEM/F-12 (pH adjusted to 7.4 with 0.1 M NaOH), and the concentration was adjusted to 3 mg/mL with DMEM/F-12. A basal layer of 80 μL of Col-1 was poured into each well of an eight-well chambered coverglass (155409, Thermo Scientific) and allowed to gel for 5 min at 37° C. A second layer of 200 μL of Col-1 containing 150 organoids or EpH4 clusters was added to each well and placed immediately at 37° C. After gelation, 400 μL of chemically defined medium (DMEM/F-12 containing 1% insulin/transferrin/selenium, 1% penicilin/streptomycin) with 9 nM TGFα (Sigma) or 9 nM bFGF (Sigma) was added to each well (unless stated otherwise) and replaced every other day.
# After 3 d of culture, gels were fixed with 4% formalin for 30 min and stained with phalloidin and DAPI for 1 h. Structures were imaged with an upright Zeiss LSM710 using a 0.8 NA 20× air objective. […] The number of extending processes and their average length were determined using the Imaris program (Bitplane). […] Fifty structures were counted per condition, and the experiments were executed at least three times.
molecule,measurement,setting,value
CNC(=O)[C@H](Cc1c[nH]c2ccccc12)NC(=O)[C@@H](CC(=O)NO)CC(C)C [GM6001],invasion/branching in dense CL-1 gels,[1]; dense CL-1 3 mg/ml,completely abrogated
same,invasion/branching in sparse CL-1 gels,[1],still invaded
same,MAPK activation (pErk/total Erk),[2],did not change
COc1cccc(-c2cc(=O)c3ccccc3o2)c1N [PD98059],invasion/branching in sparse CL-1 gels,[1],reduced invasion/branching
same,Itgb1 level,[3],reduced
same,Mmp14 level,[3],reduced
same,Itgb1 level,[3]; listed as PD95089,reduced expression
same,Mmp14 level,[3]; listed as PD95089,reduced expression
CCc1cc(-c2n[nH]c(C)c2-c2ccc3c(c2)OCCO3)c(O)cc1O [CCT018159],invasion of FL and EA-SCp2 cells,[4],reduced invasion
same,invasion of dPEX-SCp2 or control cells,[4],no significant effect
recombinant HSP90β: recombinant HSP90β protein purchased from Calbiochem/EMD Millipore,invasion of FL and EA-SCp2 cells,[4],enhanced invasion significantly
same,invasion of dPEX-SCp2 or control cells,[4],did not raise the invasive potential
same,invasion and branching of mammary organoids,"[5]; 3 mg/mL Col-1, 3 d, TGFα",most exuberant branched structures
same,spatial network per organoid,"[5]; organoids overexpressing FL MMP3, 3 mg/mL Col-1, 3 d",longest spatial network observed so far
